{"source": "patent US10736856B2", "about": "“Use of xibornol as active agent in the treatment of viral infections” (priority 2016, dated 2020)", "assay_in_all_cases": "Xibornol virucidal efficacy test (UNI EN 14476 adapted), residual viral titer by Karber micromethod", "conditions_in_all_cases": "for Average viral titre after 15 minutes contact / Logarithmic reduction: 15 minutes contact", "key": {"[1]": {"system": "Human Adenovirus 5", "assay_type": "cell-based", "method": "(§1) The experimentation was conducted by using the following strains from ATCC: • VR-5 Human Adenovirus 5; Strain: Adenoid 75, • VR-286 Picornaviridae, Rhinovirus, Human Rhinovirus A, • VR-740 Human Coronavirus.\n(§2) The cell lines used for the isolation of the target viruses were: • ATCC CCL-2 HeLa—Cervical Adenocarcinoma—Human (Homo sapiens), briefly ‘HeLa’, for the study of Human Adenovirus 5 and Human Rhinovirus, and • ATCC CCL-171 MRC-5-Lung Fibroblast-Human (Homo Sapiens), briefly ‘MRC-5’ for the study of Human Coronavirus.\n(§3) The tests to assess the toxicity of xibornol were performed as per UNI EN 14476 protocol, which refers to the “virucidal activity of chemical disinfectants or antiseptics for tools, surfaces or hands forming a physically stable homogeneous mixture when diluted with hard water or water”, suitably adapted, also considering that xibornol is soluble in alcohol (ethanol) that is already well known to have toxic effects for cell cultures.\n(§4) Therefore, it was decided to use preparations in which xibornol was diluted with different solvents, in order also to be able to test both the solution and the suspension condition. After several tests, a reliable method was set up, by using Labrasol®, namely caprylocaproyl polyoxyl-8 glyceride, as solvent and formulating xibornol in solution.\n(§5) For each of the 3 viruses, 3 replicates were performed with 10 mL mixtures consisting of: • 1 mL Labrasol® (“clean” tests) or 1 mL of fetal bovine serum (“dirt” tests); • 8 mL xibornol for each dilution (8%, 3%, 0.5%) at the non-toxic concentration for the cell cultures: 10^−3, 10^−2 and 10^−1 respectively, and corresponding to 0.008 g/100 mL, 0.030 g/100 mL and […]. Dilutions made in Labrasol®; • 1 mL of virus with known titer.\n(§6) The tests carried out in “dirt” situations, specified by the standard protocol, were intended to create a more “difficult” environment for the performance of the virucidal activity by xibornol, hindered in its activity by the presence of further polluting components, as actually happens in the application environment of the active ingredient, allowing recreating and simulating as closely as possible the conditions of use.\n(§7) For tests performed in “dirt” condition, the erythrocytes were not mixed with the bovine fetal serum, as indicated by the European standard, because of the interfering effect they have towards the cell lines used in the tests, which would have led to difficulties in interpreting the results.\n(§8) Moreover, for each replicate, a negative control was used, consisting of: • 1 mL virus; • 9 mL Labrasol® (“clean” tests) or 8 mL Labrasol®+1 mL fetal bovine serum (“dirt” tests).\n(§9) Contact time: 15 minutes.\n(§10) After this interval, the mixtures were analysed to assess the residual viral titer by titration, Karber micromethod.\n(§11) The data obtained were analysed with the Excel program for the evaluation of averages and total logarithmic standard deviations."}, "[2]": {"system": "Human Coronavirus", "assay_type": "cell-based, Human Coronavirus (ATCC VR-740), titrated on MRC-5", "method": "as §1, §2, §3, §4, §5, §6, §7, §8, §9, §10, §11"}, "[3]": {"system": "Human Rhinovirus", "assay_type": "cell-based, Human Rhinovirus A (ATCC VR-286), titrated on HeLa", "method": "as §1, §2, §3, §4, §5, §6, §7, §8, §9, §10, §11"}, "[4]": {"conditions": "after 15 minutes of contact, all concentrations tested (0.008, 0.030, 0.05 g/100 mL)"}, "[5]": {"conditions": "extrapolated from trend curve to xibornol 3 g per 100 mL of solution"}, "[6]": {"conditions": "“clean” test, working concentration 0.008 g/100 mL (8% solution, dilution 10^−3)"}, "[7]": {"conditions": "“clean” test, working concentration 0.03 g/100 mL (3% solution, dilution 10^−2)"}, "[8]": {"conditions": "“clean” test, working concentration 0.05 g/100 mL (0.5% solution, dilution 10^−1)"}, "[9]": {"conditions": "“dirt” test (fetal bovine serum), working concentration 0.008 g/100 mL (8% solution, dilution 10^−3)"}, "[10]": {"conditions": "“dirt” test (fetal bovine serum), working concentration 0.03 g/100 mL (3% solution, dilution 10^−2)"}, "[11]": {"conditions": "“dirt” test (fetal bovine serum), working concentration 0.05 g/100 mL (0.5% solution, dilution 10^−1)"}}, "note": "Entries after “also recorded” stand apart in the source; their conditions may differ.", "data": [{"smiles": "Cc1cc(O)c(C2CC3CCC2(C)C3(C)C)cc1C", "note": "(centres unmarked) [xibornol, 4,5-dimethyl-2-[1,7,7-trimethylbicyclo[2.2.1]heptan-2-yl]phenol]", "values": [{"measurement": "killing extent (reduction of viral load)", "setting": "[1]; [4]", "value": "greater than 2 orders of magnitude"}, {"measurement": "final average titer after treatment, extrapolated", "setting": "[1]; [5]", "value": "very close to zero"}, {"measurement": "reduction of the viral load titer (expressed as logarithm), extrapolated", "setting": "[1]; [5]", "value": "at least of two orders of magnitude; also recorded: almost total reduction"}, {"measurement": "Average viral titre after 15 minutes contact", "setting": "[1]; [6]", "value": "2 ± 0.8", "unit": "Log DCP50/mL"}, {"measurement": "Logarithmic reduction", "setting": "[1]; [6]", "value": 2.4}, {"measurement": "Average viral titre after 15 minutes contact", "setting": "[1]; [7]", "value": "1.3 ± 1", "unit": "Log DCP50/mL"}, {"measurement": "Logarithmic reduction", "setting": "[1]; [7]", "value": 3.1}, {"measurement": "Average viral titre after 15 minutes contact", "setting": "[1]; [8]", "value": "1.1 ± 0.1", "unit": "Log DCP50/mL"}, {"measurement": "Logarithmic reduction", "setting": "[1]; [8]", "value": 3.3}, {"measurement": "Average viral titre after 15 minutes contact", "setting": "[1]; [9]", "value": "1.1 ± 0.6", "unit": "Log DCP50/mL"}, {"measurement": "Logarithmic reduction", "setting": "[1]; [9]", "value": 2}, {"measurement": "Average viral titre after 15 minutes contact", "setting": "[1]; [10]", "value": "1.2 ± 0.6", "unit": "Log DCP50/mL"}, {"measurement": "Logarithmic reduction", "setting": "[1]; [10]", "value": 1.9}, {"measurement": "Average viral titre after 15 minutes contact", "setting": "[1]; [11]", "value": "0.8 ± 0.5", "unit": "Log DCP50/mL"}, {"measurement": "Logarithmic reduction", "setting": "[1]; [11]", "value": 2.3}, {"measurement": "reduction of the viral titer, average", "setting": "[1]; “dirt” tests", "value": "more than two orders of magnitude"}, {"measurement": "killing extent (reduction of viral load)", "setting": "[2]; [4]", "value": "greater than 2 orders of magnitude"}, {"measurement": "killing peak (reduction of viral load)", "setting": "[2]; after 15 minutes of contact, highest value reached", "value": "3.8 orders of magnitude"}, {"measurement": "final average titer after treatment, extrapolated", "setting": "[2]; [5]", "value": "very close to zero"}, {"measurement": "reduction of the viral load titer (expressed as logarithm), extrapolated", "setting": "[2]; [5]", "value": "at least of two orders of magnitude; also recorded: almost total reduction"}, {"measurement": "Average viral titre after 15 minutes contact", "setting": "[2]; [6]", "value": "1.8 ± 0.7", "unit": "Log DCP50/mL"}, {"measurement": "Logarithmic reduction", "setting": "[2]; [6]", "value": 3.4}, {"measurement": "Average viral titre after 15 minutes contact", "setting": "[2]; [7]", "value": "1.4 ± 0", "unit": "Log DCP50/mL"}, {"measurement": "Logarithmic reduction", "setting": "[2]; [7]", "value": 3.8}, {"measurement": "Average viral titre after 15 minutes contact", "setting": "[2]; [8]", "value": "1.6 ± 0.3", "unit": "Log DCP50/mL"}, {"measurement": "Logarithmic reduction", "setting": "[2]; [8]", "value": 3.6}, {"measurement": "Average viral titre after 15 minutes contact", "setting": "[2]; [9]", "value": "1.7 ± 0.7", "unit": "Log DCP50/mL"}, {"measurement": "Logarithmic reduction", "setting": "[2]; [9]", "value": 2.3}, {"measurement": "Average viral titre after 15 minutes contact", "setting": "[2]; [10]", "value": "1.5 ± 0.6", "unit": "Log DCP50/mL"}, {"measurement": "Logarithmic reduction", "setting": "[2]; [10]", "value": 2.6}, {"measurement": "Average viral titre after 15 minutes contact", "setting": "[2]; [11]", "value": "1.6 ± 0.4", "unit": "Log DCP50/mL"}, {"measurement": "Logarithmic reduction", "setting": "[2]; [11]", "value": 2.5}, {"measurement": "reduction of the viral titer, average", "setting": "[2]; “dirt” tests", "value": "more than two orders of magnitude"}, {"measurement": "killing extent (reduction of viral load)", "setting": "[3]; [4]", "value": "greater than 2 orders of magnitude"}, {"measurement": "final average titer after treatment, extrapolated", "setting": "[3]; [5]", "value": "very close to zero"}, {"measurement": "reduction of the viral load titer (expressed as logarithm), extrapolated", "setting": "[3]; [5]", "value": "at least of two orders of magnitude; also recorded: almost total reduction"}, {"measurement": "Average viral titre after 15 minutes contact", "setting": "[3]; [6]", "value": "2 ± 0.1", "unit": "Log DCP50/mL"}, {"measurement": "Logarithmic reduction", "setting": "[3]; [6]", "value": 2.2}, {"measurement": "Average viral titre after 15 minutes contact", "setting": "[3]; [7]", "value": "1.3 ± 0.5", "unit": "Log DCP50/mL"}, {"measurement": "Logarithmic reduction", "setting": "[3]; [7]", "value": 2.9}, {"measurement": "Average viral titre after 15 minutes contact", "setting": "[3]; [8]", "value": "1.2 ± 0.4", "unit": "Log DCP50/mL"}, {"measurement": "Logarithmic reduction", "setting": "[3]; [8]", "value": 3}, {"measurement": "Average viral titre after 15 minutes contact", "setting": "[3]; [9]", "value": "1 ± 0.1", "unit": "Log DCP50/mL"}, {"measurement": "Logarithmic reduction", "setting": "[3]; [9]", "value": 2.8}, {"measurement": "Average viral titre after 15 minutes contact", "setting": "[3]; [10]", "value": "0.7 ± 0.1", "unit": "Log DCP50/mL"}, {"measurement": "Logarithmic reduction", "setting": "[3]; [10]", "value": 3.1}, {"measurement": "Average viral titre after 15 minutes contact", "setting": "[3]; [11]", "value": "0.8 ± 0.1", "unit": "Log DCP50/mL"}, {"measurement": "Logarithmic reduction", "setting": "[3]; [11]", "value": 3}, {"measurement": "reduction of the viral titer, average", "setting": "[3]; “dirt” tests", "value": "more than two orders of magnitude"}, {"measurement": "reduction of the viral titer, highest reached", "setting": "[3]; “dirt” tests", "value": "≥ 3 orders of magnitude"}]}]}
